Assay results reported in patent publication US12180139B2, “Method for preparing aminoalkanoic acid derivative containing biphenyl group” (AMTIXBIO CO., LTD., priority 2019, dated 2024).
In brackets after ≈: the same amount, converted by molar mass.

Legend:
[1] = system: B. cereus (+); assay: Antibacterial MIC test (CLSI); type: cell-based; details: for MIC B. cereus (+): MHB liquid medium, 37° C., 24 hours
Method: (§1) The MIC test was conducted in accordance CLSI guidelines. […] As a positive control, Nofloxacin and Vancomycin were used.

[2] = system: B. subtilis (+); assay: Antibacterial MIC test (CLSI); type: cell-based; details: for MIC B. subtilis (+): MHB liquid medium, 37° C., 24 hours
Method: as §1

[3] = system: L. monocytogenes (+); assay: Antibacterial MIC test (CLSI); type: cell-based; details: for MIC L. monocytogenes (+): MHB liquid medium, 37° C., 24 hours
Method: as §1

[4] = system: P. acnes (+); assay: Antibacterial MIC test (CLSI); type: cell-based; details: for MIC P. acnes (+): MHB liquid medium, 37° C., 24 hours
Method: as §1

[5] = system: S. aureus enterica (−); assay: Antibacterial MIC test (CLSI); type: cell-based; details: for MIC S. aureus enterica (−): MHB liquid medium, 37° C., 24 hours
Method: as §1

[6] = system: E. coli (−); assay: Antibacterial MIC test (CLSI); type: cell-based; details: for MIC E. coli (−): MHB liquid medium, 37° C., 24 hours
Method: as §1

[7] = system: M. luteus (+); assay: Antibacterial MIC test (CLSI); type: cell-based; details: for MIC M. luteus (+): MHB liquid medium, 37° C., 24 hours
Method: as §1

[8] = system: C. albicans; details: RPMI1640 broth, 35° C., 48 hours, visual reading; expressed as a range value
Method: (§3) An in vitro antifungal susceptibility test was performed in accordance with the US Clinical and Laboratory Standards Institute (CLSI) guidelines to measure the degree of antifungal activity of the compounds synthesized in the Preparation Examples against opportunistic pathogenic fungi. […] The MIC value (μg/ ? ) is expressed as a range value. Specifically, Candida species and Cryptococcus neoformans were incubated in a Sabouraud dextrose agar (SDA) (Sigma-Aldrich) solid medium for 24 and 48 hours, respectively to obtain single colonies. The obtained single colonies were suspended in 0.85% physiological saline to prepare fungal cell suspension (1 to 5×10^6 cells/ ? ). Fungal cells 2000-fold diluted in RPMI1640 broth (Sigma-Aldrich) were seeded on 96-well plates (5×10^2 to 2.5×10^3 cells/ ? , 195 ? /well). Serial two-fold dilutions (128, 64, 32, 16, 8, 4, 2, 1, and 0.5 μg/ ? ) of compounds were prepared by diluting the compounds synthesized according to the above preparation examples. Then, 5 ? from each dilution was added to the well of the 96-well plate containing fungal cell suspension to give a final suspension of 200 ? per well. […] As a positive control, amphotericin B (AMB), which is highly toxic to the human body but is known as a representative antifungal agent, was used.

[9] = system: C. neoformans; details: RPMI1640 broth, 35° C., 72 hours, visual reading; expressed as a range value
Method: as §3

[10] = system: C. glabrata; details: RPMI1640 broth, 35° C., 48 hours, visual reading; expressed as a range value
Method: as §3

[11] = system: S. aureus (+); details: MHB liquid medium, 37° C., 24 hours
Method: (§2) The antibacterial activities against Gram-positive bacteria, Gram-negative bacteria or multi-drug resistant bacteria were evaluated for the compounds of the present invention. The MIC test was conducted in accordance CLSI guidelines. E. coli(−), P. aeruginosa(−), and S. enterica(−) were used as Gram-negative bacteria, B. cereus(+), B. subtilis(+), B. coagulans(+), L. monocytogenes(+), M. luteus(+), P. acnes(+), S. epidermidis(+), and S. aureus(+) were used as Gram-positive bacteria. Methicillin-resistant Staphylococcus aureus (MRSA) was used as multi-drug resistant bacteria. The bacterial cells were incubated until the OD600 of the single colonies reached 0.1. […] Subsequently, bacterial cells were incubated at 37° C. for 24 hours, and then the MICs (μg/ ? ) were determined by visual reading and optical density detection at 600 nm (OD600). As a positive control, Nofloxacin and Vancomycin were used.

[12] = system: S. epidermidis (+); details: MHB liquid medium, 37° C., 24 hours
Method: as §2

[13] = system: A. fumigatus; details: visual reading; expressed as a range value
Method: as §3

[14] = system: MRSA; assay: Antibacterial MIC test (CLSI); type: cell-based, Methicillin-resistant Staphylococcus aureus; details: for MIC MRSA: MHB liquid medium, 37° C., 24 hours
Method: as §1

[15] = system: B. coagulans (+); assay: Antibacterial MIC test (CLSI); type: cell-based
Method: as §1

| Structure (SMILES) | MIC B. cereus (+) [1] | MIC B. subtilis (+) [2] | MIC L. monocytogenes (+) [3] | MIC P. acnes (+) [4] | MIC S. aureus enterica (−) [5] | MIC E. coli (−) [6] | MIC M. luteus (+) [7] | MIC (μg/mL) C. albicans [8] | MIC (μg/mL) C. neoformans [9] | MIC (μg/mL) C. glabrata [10] | MIC (μg/mL) A. fumigatus [13] | MIC MRSA [14] | also measured |
| --- | --- | --- | --- | --- | --- | --- | --- | --- | --- | --- | --- | --- | --- |
| CCCCC(N)C(=O)NCCc1ccc(-c2ccc(Cl)c(Cl)c2)cc1.Cl (racemic) [Compound 75, (R)/(S)-2-amino-N-(2-(3′,4′-dichloro-[1,1′-biphenyl]-4-yl)ethyl)hexanamide hydrochloride] | 16 µg/mL | 8 µg/mL | 8 µg/mL | 8 µg/mL | >32 µg/mL | 32 µg/mL | 8 µg/mL | 0.5~4 μg/mL | 0.5~4 μg/mL | 0.5~4 μg/mL | 0.5~4 μg/mL | 8 µg/mL | MIC S. aureus (+) [11]: 8 µg/mL; MIC S. epidermidis (+) [12]: 8 µg/mL |
| CCCC(NC)C(=O)NCCc1ccc(-c2ccc(OC(F)(F)F)cc2)cc1.Cl (racemic) [Compound 90, (R)/(S)-2-(methylamino)-N-(2-(4′-(trifluoromethoxy)-[1,1′-biphenyl]-4-yl)ethyl)pentanamide hydrochloride] | – | – | – | – | – | – | – | 4~16 μg/mL | 4~16 μg/mL | 4~16 μg/mL | 4~16 μg/mL | – | – |
| CCCC(C(=O)NCCc1ccc(-c2ccc(Cl)c(Cl)c2)cc1)N(C)C (racemic) [Compound 92, (R)/(S)-N-(2-(3′,4′-dichloro-[1,1′-biphenyl]-4-yl)ethyl)-2-(dimethylamino)pentanamide] | – | – | – | – | – | – | – | 8~32 μg/mL | 4~16 μg/mL | 8~32 μg/mL | 8~32 μg/mL | – | – |
| C[C@@H]1[C@H](O)[C@@H](C)/C=C/C=C/C=C/C=C/C=C/C=C/C=C/[C@H](O[C@@H]2O[C@H](C)[C@@H](O)[C@H](N)[C@@H]2O)C[C@@H]2O[C@](O)(C[C@@H](O)C[C@@H](O)[C@H](O)CC[C@@H](O)C[C@@H](O)CC(=O)O[C@H]1C)C[C@H](O)[C@H]2C(=O)O [ABM, amphotericin B, reference compound] | – | – | – | – | – | – | – | 0.25 µg/mL (≈ 0.271 µM) | 0.25 µg/mL (≈ 0.271 µM) | 0.5 µg/mL (≈ 0.541 µM) | 1 µg/mL (≈ 1.08 µM) | – | – |
| CCn1cc(C(=O)O)c(=O)c2cc(F)c(N3CCNCC3)cc21 [Nofloxacin, reference compound] | 1 µg/mL (≈ 3.13 µM) | <0.125 µg/mL | <0.125 µg/mL | <0.125 µg/mL | <0.125 µg/mL | <0.125 µg/mL | <0.125 µg/mL | – | – | – | – | 0.5 µg/mL (≈ 1.57 µM) | MIC B. coagulans (+) ([15]; MHB liquid medium, 37° C., 24 hours): <0.125 µg/mL |
| CN[C@H](CC(C)C)C(=O)N[C@H]1C(=O)N[C@@H](CC(N)=O)C(=O)N[C@H]2C(=O)N[C@H]3C(=O)N[C@H](C(=O)N[C@H](C(=O)O)c4cc(O)cc(O)c4-c4cc3ccc4O)[C@H](O)c3ccc(c(Cl)c3)Oc3cc2cc(c3O[C@@H]2O[C@H](CO)[C@@H](O)[C@H](O)[C@H]2O[C@H]2C[C@](C)(N)[C@H](O)[C@H](C)O2)Oc2ccc(cc2Cl)[C@H]1O [Vancomycin, reference compound] | – | – | – | – | – | – | – | – | – | – | – | – | MIC ([15]; Heyndrickxia coagulans, 24 h, read-out: MIC B. coagulans (+)): 0.25 µg/mL (≈ 0.173 µM); MIC ([1]; Bacillus cereus, 24 h, read-out: MIC B. cereus (+)): 0.5 µg/mL (≈ 0.345 µM); MIC ([2]; Bacillus subtilis, 24 h, read-out: MIC B. subtilis (+)): 0.25 µg/mL (≈ 0.173 µM); MIC ([3]; Listeria monocytogenes, 24 h, read-out: MIC L. monocytogenes (+)): 0.25 µg/mL (≈ 0.173 µM); MIC ([4]; Cutibacterium acnes, 24 h, read-out: MIC P. acnes (+)): < 0.125 µg/mL; MIC ([5]; Staphylococcus aureus, 24 h, read-out: MIC S. aureus enterica (−)): > 64 µg/mL; MIC ([6]; Escherichia coli, 24 h, read-out: MIC E. coli (−)): 64 µg/mL (≈ 44.2 µM); MIC ([7]; Micrococcus luteus, 24 h, read-out: MIC M. luteus (+)): 0.25 µg/mL (≈ 0.173 µM); MIC ([14]; Staphylococcus aureus, MRSA, 24 h, read-out: MIC MRSA): 1 µg/mL (≈ 0.69 µM) |
